The values below come from patent US11478445B2, “Method for treating acute myeloid leukemia” (Bionomics Limited, priority 2017, dated 2022).

Entries after “also recorded” stand apart in the source; their conditions may differ.

The subject of experiment [1] is primary AML samples (MNC). Briefly: Viability (Annexin V/7AAD) assay, AML samples. The experiment is classed as cell-based, human. As for the experimental part: Cryopreserved mononuclear cells (MNC from BM or leukapheresis samples) were thawed in a water bath at 37° C. and cell suspension transferred to a 50 mL tube. 20 mL of IMDM media (Sigma, 13390) supplemented with 20% FBS (JRH Biosciences), 50 U/mL DNase I (Sigma), 100 IU/mL penicillin (Sigma), 100 μg/mL streptomycin (Sigma) and 2 mM L-glutamine (Sigma) was added dropwise to the cells while the tube was being vortexed slowly (or mixed by hand). The cells were centrifuged at 400 g for 5 min, supernatant was discarded and the cells were washed once with 20 mL PBS. […] The next morning, viability was determined by trypan blue exclusion and samples with viability lower than 85% underwent dead cell removal by density gradient centrifugation as follows: 15 mL of Lymphoprep (AXIS-Shield) was transferred to a 50 mL tube and the cell suspension (25 mL) carefully overlayed (so as not to disturb the interface mixing with the Lymphoprep). […] Viability and cell density were determined by trypan blue exclusion and cells were plated for respective experiments as described in the Results section.
2×10^5 cells (200 μL) were harvested in 5 mL tubes and washed 3 times with PBS. […] Results were analysed with FCS Express 4 Flow Research Edition software (De Novo Software). […]

Experiment [2] concerns primary AML samples L-AML6 and L-AML419. As to the kind of experiment: Blast cell colony assay (Methocult). It is filed as cell-based, human. To be noted: 13 days. The protocol:
1.5 mL of Methocult H4034 (STEMCELL Technologies) was aliquoted in 5 mL tubes (one tube/treatment/sample) and supplemented with 20 ng/mL of hIL-6 (Peprotech, 200-06). EX 1 and OXi4503 dilutions were added to respective tubes to the final concentrations 100 nM and 500 nM. DMSO was used as vehicle control. Samples were added to each tube to the final cell density: 2×10^4 cells/well for L-AML6 and L-AML419, 3×10^3 cells/well for AML136 and AML480. The tubes were shaken to mix drugs and cells with the Methocult and incubated at 37° C. for 10 min to remove bubbles. Samples were then plated in 24-well plates, 4 wells/treatment/sample in the 8 wells at the centre of the plate. The wells at the edges were filled with sterile water to avoid drying. Plates were incubated at 37° C. for 13 days before colonies were counted.
Blast cell colony assay. For colony assays AML MNC were plated in methylcellulose with added cytokines (see Methods) and colonies scored after 13 days. […] L-AML419 also formed a small number of colonies in the DMSO-treated wells, with fewer background cells.

The mark [3] stands for this setting: L-AML419, all doses (100 nM and 500 nM).

For the molecule `COc1cc(C(=O)c2c(C)oc3c(O)c(OC)ccc23)cc(OC)c1OC` [EX 1, 2-Methyl-7-hydroxy-3-(3,4,5-trimethoxybenzoyl)-6-methoxybenzofuran], the “viability (live cells, Annexin V/7AAD)” value in experiment [1] (48 h to 72 h) is given as “viability decreasing substantially”. For the same molecule, the colony formation entry in experiment [2] (L-AML6, either dose (100 nM and 500 nM)) was “no colonies or background cells were observed; also recorded: Colony formation is blocked”; in experiment [2] (setting [3]), “completely blocked colony and background formation; also recorded: Colony formation is blocked”.

As to `COc1cc(/C=C\c2ccc(OC)c(OP(=O)(O)O)c2OP(=O)(O)O)cc(OC)c1OC` [OXi4503, reference compound], in experiment [1], the “response to treatment (viability)” value is recorded as “did not show a response”. In addition, the colony formation entry in experiment [2] (L-AML6, 100 nM) was “reduced the background cells and also the number of colonies; also recorded: reduces colony formation”; in experiment [2] (L-AML6, 500 nM) it was “completely blocked colony formation; also recorded: completely inhibits colonies”; in experiment [2] (setting [3]), “completely blocked colony and background formation; also recorded: completely inhibits colonies”.
